In patent US20230077362A1 (CORTEVA AGRISCIENCE LLC, priority 2019, published 2023):

How the values were obtained:
[1] = test system: Beet Armyworm (Spodoptera exigua) ("BAW"), second instar larvae; assay: Bioassay on beet armyworm (BAW), 128-well diet tray assay; assay type: in vivo; conditions: for BAW rating: Table ABC, species BAW, C = not tested, D = no activity noticed; for pest or weed control at 50 µg/cm2: Spodoptera exigua, read-out: BAW rating
Procedure, shortened: (§1)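 Read-out: percent larval mortality per well, averaged over 8 wells. Incubation 25° C., 14:10 L:D photoperiod, 5–7 days, trays sealed with clear adhesive cover.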

[2] = test system: Cabbage Looper (Trichoplusia ni) ("CL"), second instar larvae; assay: Bioassay on cabbage looper (CL), 128-well diet tray assay; assay type: in vivo; conditions: for CL rating: Table ABC, species CL, C = not tested, D = no activity noticed; for pest or weed control at 50 µg/cm2: Trichoplusia ni, read-out: CL rating
Procedure, shortened: as §1

SMILES	BAW rating [1]	CL rating [2]	pest or weed control at 50 µg/cm2 [1] [%]	pest or weed control at 50 µg/cm2 [2] [%]
O=C(/N=C1\SCC(=O)N1c1ccccc1COCC(F)(F)F)Nc1ccc(-c2ncn(-c3ccc(C(F)(F)F)cc3)n2)cc1F [Compound J661]	A (50-100)	A (50-100)		
Cc1ccc(COCC(F)(F)F)c(N2C(=O)CS/C2=N\C(=O)Nc2ccc(-c3ncn(-c4ccc(OC(F)(F)C(F)(F)F)cc4)n3)cc2F)c1 [Compound J662]	A (50-100)	A (50-100)		
Cc1ccc(C(C)C)c(N2C(=O)CS/C2=N\C(=O)Nc2ncc(-c3ncn(-c4ccc(C(F)(F)F)cc4)n3)cc2C)c1 [Compound J664, (Z)-1-(3-(2-isopropyl-5-methylphenyl)-4-oxothiazolidin-2-ylidene)-3-(3-methyl-5-(1-(4-(trifluoromethyl)phenyl)-1H-1,2,4-triazol-3-yl)pyridin-2-yl)urea]			50 to 100	50 to 100
O=C(/N=C1\SCC(=O)N1c1cc(F)ccc1COCC(F)(F)F)Nc1ccc(-c2ncn(-c3ccc(S(=O)(=O)C(F)(F)F)cc3)n2)cc1F [Compound J670, (Z)-1-(3-(5-Fluoro-2-((2,2,2-trifluoroethoxy)methyl)phenyl)-4-oxothiazolidin-2-ylidene)-3-(2-fluoro-4-(1-(4-((trifluoromethyl)sulfonyl)phenyl)-1H-1,2,4-triazol-3-yl)phenyl)urea]			50 to 100	50 to 100
COCc1ccc(N(C)C)cc1N1C(=O)CS/C1=N\C(=O)Nc1ccc(-c2ncn(-c3ccc(S(=O)(=O)C(F)(F)F)cc3)n2)cc1F [Compound J671, (Z)-1-(3-(5-(Dimethylamino)-2-(methoxymethyl)phenyl)-4-oxothiazolidin-2-ylidene)-3-(2-fluoro-4-(1-(4-((trifluoromethyl)sulfonyl)phenyl)-1H-1,2,4-triazol-3-yl)phenyl)urea]			50 to 100	50 to 100
CN(C)c1ccc(OCC(F)(F)F)c(N2C(=O)CS/C2=N\C(=O)Nc2ccc(-c3ncn(-c4ccc(S(=O)(=O)C(F)(F)F)cc4)n3)cc2F)c1 [Compound J672, (Z)-1-(3-(5-(Dimethylamino)-2-(2,2,2-trifluoroethoxy)phenyl)-4-oxothiazolidin-2-ylidene)-3-(2-fluoro-4-(1-(4-((trifluoromethyl)sulfonyl)phenyl)-1H-1,2,4-triazol-3-yl)phenyl)urea]			50 to 100	50 to 100
Cc1ccc(Cc2ccc(F)cc2)c(N2C(=O)CS/C2=N\C(=O)Nc2ccc(-c3ncn(-c4ccc(OC(F)(F)F)cc4)n3)cc2F)c1 [Compound J674, (Z)-1-(2-Fluoro-4-(1-(4-(trifluoromethoxy)phenyl)-1H-1,2,4-triazol-3-yl)phenyl)-3-(3-(2-(4-fluorobenzyl)-5-methylphenyl)-4-oxothiazolidin-2-ylidene)urea]			50 to 100	50 to 100
Cc1ccc(Cc2cccc(F)c2)c(N2C(=O)CS/C2=N\C(=O)Nc2ccc(-c3ncn(-c4ccc(OC(F)(F)F)cc4)n3)cc2F)c1 [Compound J676, (Z)-1-(2-Fluoro-4-(1-(4-(trifluoromethoxy)phenyl)-1H-1,2,4-triazol-3-yl)phenyl)-3-(3-(2-(3-fluorobenzyl)-5-methylphenyl)-4-oxothiazolidin-2-ylidene)urea]			50 to 100	50 to 100
Cc1cccc(N2C(=O)CS/C2=N\C(=O)Nc2ccc(-c3ncn(-c4ccc(C(F)(F)F)cc4)n3)cc2F)c1COCC(F)(F)F [Compound J677]	A (50-100)	A (50-100)		
Cc1ccc(COCC(F)(F)F)c(N2C(=O)CS/C2=N\C(=O)Nc2ccc(-c3ncn(-c4ccc(OC(F)(F)F)cc4)n3)cc2F)c1C [Compound J678]	A (50-100)	A (50-100)		
Cc1cc(-c2ncn(-c3ccc(OC(F)(F)F)cc3)n2)ccc1NC(=O)/N=C1\SCC(=O)N1c1c(COCC(F)(F)F)ccc(C)c1C [Compound J679]	A (50-100)	A (50-100)		
Cc1ccc(COCC(F)(F)F)c(N2C(=O)CS/C2=N\C(=O)Nc2ccc(-c3ncn(-c4ccc(C(F)(F)F)cc4)n3)cc2F)c1C [Compound J680]	A (50-100)	A (50-100)		
Cc1ccc(COCC(F)(F)F)c(N2C(=O)CS/C2=N\C(=O)Nc2ccc(-c3ncn(-c4ccc(OC(F)(F)C(F)(F)F)cc4)n3)cc2C)c1 [Compound J681]	A (50-100)	A (50-100)		
Cc1cc(-c2ncn(-c3ccc(OC(F)(F)C(F)(F)F)cc3)n2)ccc1NC(=O)/N=C1\SCC(=O)N1c1cccc(C)c1COCC(F)(F)F [Compound J682]	A (50-100)	A (50-100)		
Cc1ccc(Cc2ccc(F)cc2)c(N2C(=O)CS/C2=N\C(=O)Nc2ccc(-c3ncn(-c4ccc(S(F)(F)(F)(F)F)cc4)n3)cc2C#N)c1 [Compound J683, (Z)-1-(2-Cyano-4-(1-(4-(pentafluoro-λ^6-sulfaneyl)phenyl)-1H-1,2,4-triazol-3-yl)phenyl)-3-(3-(2-(4-fluorobenzyl)-5-methylphenyl)-4-oxothiazolidin-2-ylidene)urea]			50 to 100	50 to 100
COC(C)c1ccc(C)cc1N1C(=O)CS/C1=N\C(=O)Nc1ccc(-n2cnc(-c3ccc(OC(F)(F)F)cc3)n2)cc1F (centres unmarked) [Compound J685, (Z)-1-(2-Fluoro-4-(3-(4-(trifluoromethoxy)phenyl)-1H-1,2,4-triazol-1-yl)phenyl)-3-(3-(2-(1-methoxyethyl)-5-methylphenyl)-4-oxothiazolidin-2-ylidene)urea]			50 to 100	50 to 100
COC(c1ccc(C)cc1N1C(=O)CS/C1=N\C(=O)Nc1ccc(-n2cnc(-c3ccc(OC(F)(F)F)cc3)n2)cc1F)C(F)(F)F (centres unmarked) [Compound J687, (Z)-1-(2-Fluoro-4-(3-(4-(trifluoromethoxy)phenyl)-1H-1,2,4-triazol-1-yl)phenyl)-3-(3-(5-methyl-2-(2,2,2-trifluoro-1-methoxyethyl)phenyl)-4-oxothiazolidin-2-ylidene)urea]			50 to 100	50 to 100
CN(C)c1ccc(OCC(F)(F)F)c(N2C(=O)CS/C2=N\C(=O)Nc2ccc(-n3cnc(-c4ccc(OC(F)(F)F)cc4)n3)cc2F)c1 [Compound J688, (Z)-1-(3-(5-(Dimethylamino)-2-(2,2,2-trifluoroethoxy)phenyl)-4-oxothiazolidin-2-ylidene)-3-(2-fluoro-4-(3-(4-(trifluoromethoxy)phenyl)-1H-1,2,4-triazol-1-yl)phenyl)urea]			50 to 100	50 to 100
Cc1ccc(COCC(F)(F)F)c(N2C(=O)CS/C2=N\C(=O)Nc2ccc(-n3cnc(-c4ccc(OC(F)(F)F)cc4)n3)cc2F)c1 [Compound J689, (Z)-1-(2-Fluoro-4-(3-(4-(trifluoromethoxy)phenyl)-1H-1,2,4-triazol-1-yl)phenyl)-3-(3-(5-methyl-2-((2,2,2-trifluoroethoxy)methyl)phenyl)-4-oxothiazolidin-2-ylidene)urea]			50 to 100	50 to 100
O=C(/N=C1\SCC(=O)N1c1cc(F)ccc1COCC(F)(F)F)Nc1ccc(-n2cnc(-c3ccc(OC(F)(F)F)cc3)n2)cc1F [Compound J690, (Z)-1-(3-(5-Fluoro-2-((2,2,2-trifluoroethoxy)methyl)phenyl)-4-oxothiazolidin-2-ylidene)-3-(2-fluoro-4-(3-(4-(trifluoromethoxy)phenyl)-1H-1,2,4-triazol-1-yl)phenyl)urea]			50 to 100	50 to 100
COc1ccc(COCC(F)(F)F)c(N2C(=O)CS/C2=N\C(=O)Nc2ccc(-n3cnc(-c4ccc(OC(F)(F)F)cc4)n3)cc2F)c1 [Compound J691, (Z)-1-(2-Fluoro-4-(3-(4-(trifluoromethoxy)phenyl)-1H-1,2,4-triazol-1-yl)phenyl)-3-(3-(5-methoxy-2-((2,2,2-trifluoroethoxy)methyl)phenyl)-4-oxothiazolidin-2-ylidene)urea]			50 to 100	50 to 100
Cc1ccc(COCC(F)F)c(N2C(=O)CS/C2=N\C(=O)Nc2ccc(-n3cnc(-c4ccc(OC(F)(F)F)cc4)n3)cc2F)c1 [Compound J692, (Z)-1-(3-(2-((2,2-Difluoroethoxy)methyl)-5-methylphenyl)-4-oxothiazolidin-2-ylidene)-3-(2-fluoro-4-(3-(4-(trifluoromethoxy)phenyl)-1H-1,2,4-triazol-1-yl)phenyl)urea]			50 to 100	50 to 100
Cc1ccc(OCCC(F)(F)F)c(N2C(=O)CS/C2=N\C(=O)Nc2ccc(-n3cnc(-c4ccc(OC(F)(F)F)cc4)n3)cc2F)c1 [Compound J693, (Z)-1-(2-Fluoro-4-(3-(4-(trifluoromethoxy)phenyl)-1H-1,2,4-triazol-1-yl)phenyl)-3-(3-(5-methyl-2-(3,3,3-trifluoropropoxy)phenyl)-4-oxothiazolidin-2-ylidene)urea]			50 to 100	50 to 100
Cc1ccc(C(C)C)c(N2C(=O)CS/C2=N\C(=O)Nc2ccc(-n3cnc(-c4ccc(C(F)(F)F)cc4)n3)cc2F)c1 [Compound J694, (Z)-1-(2-Fluoro-4-(3-(4-(trifluoromethyl)phenyl)-1H-1,2,4-triazol-1-yl)phenyl)-3-(3-(2-isopropyl-5-methylphenyl)-4-oxothiazolidin-2-ylidene)urea]			50 to 100	50 to 100
COC(C)c1ccc(C)cc1N1C(=O)CS/C1=N\C(=O)Nc1ccc(-n2cnc(-c3ccc(C(F)(F)F)cc3)n2)cc1F (centres unmarked) [Compound J695, (Z)-1-(2-Fluoro-4-(3-(4-(trifluoromethyl)phenyl)-1H-1,2,4-triazol-1-yl)phenyl)-3-(3-(2-(1-methoxyethyl)-5-methylphenyl)-4-oxothiazolidin-2-ylidene)urea]			50 to 100	50 to 100
